Biological target: T1, GABAA receptor β1 subunit (α1β1γ2SEM tri-heteromer) (Rattus norvegicus, UniProt P15431+P62813, P15431:DEL334-439/P15431:INS334GT/P62813:DEL340-408)
T1 construct: gene Gabrb1; purified α1β1γ2SEM receptor-Fab complex (M3/M4 loop deletions in α1 and β1; full-length γ2S); with GABAA receptor α1 subunit (Gabra1, P62813) and γ2S subunit (Gabrg2, P18508); 8E3 Fab
Assay: radioligand saturation binding (scintillation proximity assay)

T1 sequence (P15431 with tags, fused parts or gaps DEL334-439/INS334GT): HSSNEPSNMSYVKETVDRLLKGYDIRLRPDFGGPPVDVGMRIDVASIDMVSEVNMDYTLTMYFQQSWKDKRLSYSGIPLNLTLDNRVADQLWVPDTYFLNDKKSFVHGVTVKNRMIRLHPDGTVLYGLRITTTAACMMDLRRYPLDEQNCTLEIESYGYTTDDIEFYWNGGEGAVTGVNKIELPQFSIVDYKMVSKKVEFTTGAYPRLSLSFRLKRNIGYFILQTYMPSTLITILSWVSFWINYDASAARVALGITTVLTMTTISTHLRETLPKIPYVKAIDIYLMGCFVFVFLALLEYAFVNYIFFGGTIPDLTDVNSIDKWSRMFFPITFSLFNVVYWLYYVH
T1 sequence (P62813 with tags, fused parts or gaps DEL340-408): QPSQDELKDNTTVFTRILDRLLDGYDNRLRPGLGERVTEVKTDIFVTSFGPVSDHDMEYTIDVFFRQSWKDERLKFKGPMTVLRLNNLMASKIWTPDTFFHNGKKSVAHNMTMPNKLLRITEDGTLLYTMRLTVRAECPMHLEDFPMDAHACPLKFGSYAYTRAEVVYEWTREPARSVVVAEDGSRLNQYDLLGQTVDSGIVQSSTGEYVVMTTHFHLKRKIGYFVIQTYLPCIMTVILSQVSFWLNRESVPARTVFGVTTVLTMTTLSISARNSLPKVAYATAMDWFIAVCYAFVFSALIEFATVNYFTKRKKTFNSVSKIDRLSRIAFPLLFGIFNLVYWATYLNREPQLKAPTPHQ
T1 sequence (P18508 39-466 partner): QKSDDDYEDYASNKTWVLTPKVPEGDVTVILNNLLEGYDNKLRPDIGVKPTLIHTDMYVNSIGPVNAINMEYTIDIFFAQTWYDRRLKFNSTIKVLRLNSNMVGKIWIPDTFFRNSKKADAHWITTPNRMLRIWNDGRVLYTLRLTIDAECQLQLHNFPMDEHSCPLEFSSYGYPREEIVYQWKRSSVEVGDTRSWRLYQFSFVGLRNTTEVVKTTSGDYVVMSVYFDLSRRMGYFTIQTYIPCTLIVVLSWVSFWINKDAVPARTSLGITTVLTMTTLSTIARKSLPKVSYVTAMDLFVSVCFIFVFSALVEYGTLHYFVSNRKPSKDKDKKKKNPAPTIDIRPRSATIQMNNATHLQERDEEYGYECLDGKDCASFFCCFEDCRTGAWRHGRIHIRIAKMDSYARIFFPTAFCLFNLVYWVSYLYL

NCc1cc(=O)[nH]o1 [muscimol]
Kd: 0.109 µM

From paper PMC6086659 (eLife, 2018)
